{"source": "patent US7172889B2", "about": "“Biological compositions and methods for treatment of cervical cancer” (Ultra Biotech Limited, priority 2003, dated 2007)", "key": {"[1]": {"system": "cervical cancer cell line U14", "test": "Survival of mice of the 615 strain transplanted with cervical cancer cell line U14 (Example 7)", "type": "in vivo", "settings": "for Number of live animals remaining in the groups after 30 days of treatment: 30 mice per group, 2AY/2NY 0.5 ml oral per day, 2MMC 1.2 mg/kg/day s.c.", "experimental": "The following example illustrates the benefit of a biological composition of the invention in a model of human cervical cancer in mice from the 615 strain. The survival time of mice after tumor injection and treatment was studied.\n(§1) The biological composition comprising 10^8 cells per ml of activated and conditioned yeast cells of the strain Saccharomyces carlsbergensis Hansen strain AS2.444 was prepared by the methods described in Section 5.1 and subsections therein.\nThe animals were prepared in a similar manner as described in Section 6.1.\n(§2) The mice injected with tumor cells were immediately divided into 4 experimental groups of ten mice per group and one control group. The four experimental groups were triplicated (i.e., using a total of 120 mice in the experimental groups). In group 2AY, the mice received 0.5 ml of the biological composition once per day. In group 2NY, the mice received 0.5 ml of the untreated yeast cells once per day. In group 2MMC, the mice were injected subcutaneously with 1.2 mg of mitomycin C (MMC) per kg body weight per day. In group 2CK1, the mice received 0.5 ml of physiological saline once per day.\n(§3) The mice received the biological composition, untreated yeast cells, MMC or saline on the same day as the tumor cells were transplanted. The mice in group 2CK2 also started receiving saline on the same day as the other four groups. The biological composition, untreated yeast cells and saline were administered orally by a feeding tube and the MMC by subcutaneous injection for 30 consecutive days. The mice were observed over 6 months from the day of tumor inoculation and survival was recorded. The weight of the mice and the weight of the tumor were determined by standard techniques."}, "[2]": {"system": "cervical cancer cell line U14", "test": "Tumor growth in mice of the 615 strain transplanted with cervical cancer cell line U14 (Example 6)", "type": "in vivo, mice from the 615 strain", "settings": "U14 tumor-bearing 615 mice, 30 consecutive days of treatment, sacrificed on 31st day; AY/NY 0.3 ml oral once per day, MMC 0.8 mg/kg/day s.c.", "source_text": "The following example illustrates the benefit of a biological composition of the invention in a model of human cervical cancer in mice from the 615 strain. The growth of the tumor in the mice was studied.\n(§4) The cervical cancer cell line U14 was used in the model which closely resembles the human cervical cancer pathology. Detailed description of the use of cervical cancer cell line U14 can be found in Tao G. et al., 2001, Chin Med J. 114(6):623–7, which is incorporated herein by reference in its entirety.\nas §1\nThe animals used to generate the cervical cancer cells for the experiments were female mice from the 615 strain (obtainable from the Chinese Academy of Military Medical Sciences, Beijing, China) having an average body weight of 20 to 22 gram and 4 to 6 months old. […]\nThe mice received the biological composition, untreated yeast cells, MMC or saline on the same day as the tumor cells were transplanted. […] The weight of the mice and the weight of the tumor were determined by standard techniques."}, "[3]": {"system": "cervical cancer cell line U27", "test": "Tumor growth in kun ming mice transplanted with cervical cancer cell line U27 (Example 8)", "type": "in vivo, kun ming mouse", "settings": "U27 tumor-bearing kun ming mice, 30 consecutive days of treatment, sacrificed on 31st day; AY/NY 0.3 ml oral once per day, VCR 3 mg/kg/day i.v.", "source_text": "The following example illustrates the benefit of a biological composition of the invention in a kun ming mouse model of human cervical cancer. The growth of the tumor in the mice was studied.\nas §4, with “U27” for “U14”, “Qian S. S.” for “Tao G.”, “1987, Zhongguo Yi Xue Ke Xue Yuan Xue Bao 9(1):33–7,” for “2001, Chin Med J. 114(6):623–7,”\nas §1\nThe animals used to generate the cervical cancer cells for the experiments were female kun ming mouse (obtainable from the Chinese Academy of Military Medical Sciences, Beijing, China) having an average body weight of 20 to 22 gram and 5 to 6 months old. […]\nThe mice received the biological composition, untreated yeast cells, VCR or saline on the same day as the tumor cells were transplanted. […] The weight of the mice and the weight of the tumor were determined by standard techniques."}, "[4]": {"system": "cervical cancer cell line U27", "test": "Survival of kun ming mice transplanted with cervical cancer cell line U27 (Example 9)", "type": "in vivo", "settings": "for Number of live animals remaining in the groups after 30 days of treatment: 30 mice per group, 2AY/2NY 0.5 ml oral per day, 2VCR 4.5 mg/kg/day i.v.", "experimental": "The following example illustrates the benefit of a biological composition of the invention in a kun ming mouse model of human cervical cancer. The survival time of mice after tumor injection and treatment was studied.\nas §1\nThe animals were prepared in a similar manner as described in Section 8.1.\nas §2, with “2VCR,” for “2MMC,”, “intravenously” for “subcutaneously”, “4.5” for “1.2”, “[…] (VCR)” for “mitomycin C (MMC)”\nas §3, with “VCR” for “MMC”, “intravenous” for “subcutaneous”"}, "[5]": {"settings": "0 month after cessation of treatment"}, "[6]": {"settings": "1 month after cessation of treatment"}, "[7]": {"settings": "2 months after cessation of treatment"}, "[8]": {"settings": "3 months after cessation of treatment"}, "[9]": {"settings": "4 months after cessation of treatment"}, "[10]": {"settings": "5 months after cessation of treatment"}, "[11]": {"settings": "6 months after cessation of treatment"}, "[12]": {"settings": "surviving mice after 6 months observation, U14, 615 mice, 0.5 ml oral per day (2MMC 1.2 mg/kg/day s.c.) for 30 days"}, "[13]": {"settings": "surviving mice after 6 months observation, U27, kun ming mice, 0.5 ml oral per day (2VCR 4.5 mg/kg/day i.v.) for 30 days"}}, "data": [{"smiles": "CO[C@@]12[C@H](COC(N)=O)C3=C(C(=O)C(C)=C(N)C3=O)N1C[C@@H]1N[C@@H]12", "note": "[MMC, mitomycin C]", "values": [{"measurement": "Number of live animals remaining in the groups after 30 days of treatment", "setting": "[1]; [5]", "value": 30}, {"measurement": "Number of live animals remaining in the groups after 30 days of treatment", "setting": "[1]; [6]", "value": 30}, {"measurement": "Number of live animals remaining in the groups after 30 days of treatment", "setting": "[1]; [7]", "value": 24}, {"measurement": "Number of live animals remaining in the groups after 30 days of treatment", "setting": "[1]; [8]", "value": 13}, {"measurement": "Number of live animals remaining in the groups after 30 days of treatment", "setting": "[1]; [9]", "value": 0}, {"measurement": "Number of live animals remaining in the groups after 30 days of treatment", "setting": "[1]; [10]", "value": 0}, {"measurement": "Number of live animals remaining in the groups after 30 days of treatment", "setting": "[1]; [11]", "value": 0}, {"measurement": "death during the experiment", "setting": "[1]; observed over 6 months, 2NY 0.5 ml per day, 2MMC 1.2 mg/kg/day", "value": "all died during the experiment"}, {"measurement": "mean weight of mice and standard deviation", "setting": "[1]; [12]", "value": "all animals dead"}, {"measurement": "mean weight of tumor nodules and standard deviation", "setting": "[1]; [12]", "value": "all animals dead"}, {"measurement": "mean weight of mice and standard deviation", "setting": "[2]", "value": "19.3 ± 3.3", "unit": "g"}, {"measurement": "mean weight of tumor nodules and standard deviation", "setting": "[2]", "value": "4.4 ± 2.23", "unit": "mg"}]}, {"smiles": "CC[C@]1(O)C[C@@H]2CN(CCc3c([nH]c4ccccc34)[C@@](C(=O)OC)(c3cc4c(cc3OC)N(C)[C@H]3[C@@](O)(C(=O)OC)[C@H](OC(C)=O)[C@]5(CC)C=CCN6CC[C@]43[C@@H]65)C2)C1", "note": "[VCR, vinblastine]", "values": [{"measurement": "mean weight of mice and standard deviation", "setting": "[3]", "value": "18.5 ± 3.7", "unit": "g"}, {"measurement": "mean weight of tumor nodules and standard deviation", "setting": "[3]", "value": "4.77 ± 2.79", "unit": "g"}, {"measurement": "Number of live animals remaining in the groups after 30 days of treatment", "setting": "[4]; [5]", "value": 30}, {"measurement": "Number of live animals remaining in the groups after 30 days of treatment", "setting": "[4]; [6]", "value": 30}, {"measurement": "Number of live animals remaining in the groups after 30 days of treatment", "setting": "[4]; [7]", "value": 22}, {"measurement": "Number of live animals remaining in the groups after 30 days of treatment", "setting": "[4]; [8]", "value": 17}, {"measurement": "Number of live animals remaining in the groups after 30 days of treatment", "setting": "[4]; [9]", "value": 4}, {"measurement": "Number of live animals remaining in the groups after 30 days of treatment", "setting": "[4]; [10]", "value": 0}, {"measurement": "Number of live animals remaining in the groups after 30 days of treatment", "setting": "[4]; [11]", "value": 0}, {"measurement": "death during the experiment", "setting": "[4]; observed over 6 months, 2NY 0.5 ml per day, 2VCR 4.5 mg/kg/day", "value": "all died during the experiment"}, {"measurement": "mean weight of mice and standard deviation", "setting": "[4]; [13]", "value": "all animals dead"}, {"measurement": "mean weight of tumor nodules and standard deviation", "setting": "[4]; [13]", "value": "all animals dead"}]}]}
